Source: article PMC9538324 (Journal of medical virology, 2022)
Read-outs that look alike come from different tables or passages of the source.

Experiments:
[1] = tested on: SARS-CoV-2 (USA-WA1 strain); assay: microbe, parasite or virus in culture; assay type: cell-based; settings: Severe acute respiratory syndrome coronavirus 2, A549-ACE2, read-out: EC50 against SARS-CoV-2
Omicron PV = assay type: cell-based, SARS-CoV-2
Wuhan PV = assay type: cell-based, SARS-CoV-2
Delta PV = assay type: cell-based, SARS-CoV-2
VSV-G = assay type: cell-based, Vesicular stomatitis virus
rVSV-EBOV = assay: microbe, parasite or virus in culture; assay type: cell-based, Ebola virus; settings: Zaire ebolavirus, A549-ACE2, read-out: EC50 against rVSV-EBOV
A549-ACE2 cells [2] = tested on: A549-ACE2 cells
AXL = settings: read-out: IC50 against AXL; cited from earlier work
A549-ACE2 cells [3] = assay: cells; settings: Homo sapiens, A549-ACE2, read-out: EC50 for PLD induction
SARS-CoV-2 [4] = settings: Vero cells; cited from earlier work
SARS-CoV-2 [5] = settings: Calu-3 cells; cited from earlier work
SARS-CoV-2 [6] = settings: Vero cells, anti-NP antibody, Mount Sinai; cited from earlier work
SARS-CoV-2 [7] = settings: A549-ACE2 cells; cited from earlier work
SARS-CoV-2 [8] = settings: Huh7 cells; cited from earlier work
SARS-CoV-2 [9] = settings: A549-ACE2 cells, RT-PCR and plaque assay, Institut Pasteur; cited from earlier work
in vitro = settings: human
Vero cells = settings: cited from earlier work
A549-ACE2 cells [10] = assay: MTT cell viability assay; settings: 0.63 μM
A549-ACE2 cells [11] = settings: A549-ACE2 infection assay
[12] = A549-ACE2 cells, compared with amodiaquine

Compound	EC50 [1] [nM]	infection inhibition against Omicron PV compared to VSV-G (Omicron PV)	Wuhan PV infection compared to VSV-G (Wuhan PV)	Delta PV infection compared to VSV-G (Delta PV)	VSV-G infection relative to the level in imatinib- or nintedanib-treated cells (VSV-G)	EC50 (rVSV-EBOV) [nM]	PLD induction (in words) (A549-ACE2 cells [2]; [12])	IC50 (AXL) [nM]	EC50 (A549-ACE2 cells [3]) [nM]	EC50 (SARS-CoV-2 [4]) [nM]	anti-SARS-CoV-2 activity (SARS-CoV-2 [5])	EC50 (SARS-CoV-2 [6]) [nM]	lowest concentration tested showing inhibition of virus replication (SARS-CoV-2 [7]) [µM]	EC50 (SARS-CoV-2 [8]) [nM]	EC50 (SARS-CoV-2 [9]) [nM]	fold induction (in vitro)	CC50 (Vero cells) [nM]	reduction of cell viability by MTT assay (A549-ACE2 cells [10])	cytotoxicity (in words) (A549-ACE2 cells [11])	PLD induction (in words) (A549-ACE2 cells [2])
CCc1nc(C(N)=O)c(Nc2ccc(N3CCC(N4CCN(C)CC4)CC3)c(OC)c2)nc1NC1CCOCC1 [Gilteritinib, gilteritinib]	~100	significant infection inhibition	small decrease	small decrease	around 50%	250	induces a small amount of PLD	41	390	6750	no detectable activity	~800	0.5	200	60 to 120	15	37200	approximately 30%		
COC(=O)c1ccc2c(c1)NC(=O)/C2=C(\Nc1ccc(N(C)C(=O)CN2CCN(C)CC2)cc1)c1ccccc1 [Nintedanib, nintedanib]							strong PLD inducers												little cytotoxicity	
Cc1ccc(NC(=O)c2ccc(CN3CCN(C)CC3)cc2)cc1Nc1nccc(-c2cccnc2)n1 [Imatinib, imatinib]																				strong PLD inducers
